Patent US9199946B2, “Pyrimidinone carboxamide inhibitors of endothelial lipase” (BRISTOL-MYERS SQUIBB COMPANY, priority 2012, dated 2015)

Each molecule was assayed against T1, Endothelial lipase (EL) (Homo sapiens, UniProt Q9Y5X9) (assay: Endothelial lipase (EL) enzymatic assay with fluorescent substrate A10070 in DMPG vesicles). Conditions: conditioned media from HT-1080 cells overexpressing endogenous EL; 20 min preincubation at 37° C.; read-out: EL IC50.
T1 construct: HT-1080 cells, which were transformed by RAGE technology (Athersys) to overexpress endogenous EL; endogenous in cells; conditioned medium used as the enzyme source
T1 sequence (Q9Y5X9 21-500): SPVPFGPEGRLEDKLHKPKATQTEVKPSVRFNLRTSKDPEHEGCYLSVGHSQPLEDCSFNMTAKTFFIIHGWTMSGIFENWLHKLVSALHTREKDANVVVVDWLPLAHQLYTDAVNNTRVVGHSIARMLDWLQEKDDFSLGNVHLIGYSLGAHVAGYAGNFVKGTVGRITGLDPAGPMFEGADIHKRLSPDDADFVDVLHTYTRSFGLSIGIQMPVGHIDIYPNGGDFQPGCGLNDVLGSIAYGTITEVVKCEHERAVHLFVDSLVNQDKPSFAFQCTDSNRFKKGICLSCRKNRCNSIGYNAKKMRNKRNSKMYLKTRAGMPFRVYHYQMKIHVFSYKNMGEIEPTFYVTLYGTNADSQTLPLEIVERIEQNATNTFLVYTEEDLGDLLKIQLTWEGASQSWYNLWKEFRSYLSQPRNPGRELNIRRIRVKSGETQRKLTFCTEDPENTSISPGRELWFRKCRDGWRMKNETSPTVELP
Format: biochemical
Method: Endothelial lipase activity was measured using a fluorescent substrate, A10070, (Invitrogen, CA) doped into an artificial vesicle containing DMPG (Avanti Polar Lipids) as the excipient. Vesicles were prepared by combining 285 μL of 1 mM DMPG in a 1:1 mixture of MeOH and CHCl3 with 15 μL of 1 mM A10070 in a 1:1 mixture of MeOH and CHCl3. The mixture was dried under nitrogen and resuspended in 150 μL of 50 mM HEPES pH 8.0 buffer containing 100 mM NaCl and 0.2 mM EDTA. The sample was allowed to sit at rt for 15 min and then was sonicated 3×4 mins on ice with a Branson Sonicator using duty cycle 1. This preparation provides vesicles with a mole fraction of 0.05 for the FRET substrate.
The enzymatic assay was measured using white, opaque 96-well half area plates. Each well contained 60 μL of assay buffer (50 mM HEPES pH 8.0, 50 mM NaCl and 1 mM CaCl2) and 2 ul of a DMSO solution containing compound of interest. Conditioned media obtained from HT-1080 cells, which were transformed by RAGE technology (Athersys) to overexpress endogenous EL, was added and the reaction was allowed to incubate for 20 min at 37° C. with gentle agitation. The reaction was started by the addition of 20 μL of a 1:4 dilution of vesicles. The final total reaction volume was 100 μL. The reaction rates were measured on a Gemini plate reader with an excitation wavelength of 488 nm and an emission of 530 nm. Readings were taken every 20 seconds for 10 min with agitation between each reading. The slope of the linear portion of the readout was used to calculate the rate of the reaction.
`O=C(O)Cn1c(=O)[nH]c(C(=O)N[C@H]2CC[C@@H](c3ccccc3)CC2)c(O)c1=O` [Example 267, 2-(5-Hydroxy-2,6-dioxo-4-((cis-4-phenylcyclohexyl)carbamoyl)-2,3-dihydropyrimidin-1(6H)-yl)acetic acid] gave an IC50 of 1.42 µM.

Same assay, conditions: range observed in the EL assay; read-out: EL IC50 values
For `Nc1c(C(=O)NC2CCCC(c3ccccc3)C2)[nH]c(=O)[nH]c1=O` (single isomer, unassigned) [Example 100, 5-amino-2,6-dioxo-N-(3-phenylcyclohexyl)-1,2,3,6-tetrahydropyrimidine-4-carboxamide], the IC50 was at most 10 µM.
With `Nc1c(C(=O)NC2CCC(c3ccccc3)CC2)[nH]c(=O)[nH]c1=O` (centres unmarked) [Example 2, 5-amino-2,6-dioxo-N-(4-phenylcyclohexyl)-1,2,3,6-tetrahydropyrimidine-4-carboxamide] the IC50 was at most 10 µM.
In the case of `COc1ccc2c(c1)[C@@H](NC(=O)c1[nH]c(=O)[nH]c(=O)c1O)CCC2` [Example 265, (S)-5-hydroxy-N-(7-methoxy-1,2,3,4-tetrahydronaphthalen-1-yl)-2,6-dioxo-1,2,3,6-tetrahydropyrimidine-4-carboxamide], the IC50 is reported as at most 10 µM.
Molecule `CC(C)(C)OC(=O)N1CCC(NC(=O)c2[nH]c(=O)[nH]c(=O)c2N)c2ccccc21` (centres unmarked) [Example 16, tert-butyl 4-(5-amino-2,6-dioxo-1,2,3,6-tetrahydropyrimidine-4-carboxamido)-3,4-dihydroquinoline-1(2H)-carboxylate] has an IC50 of at most 10 µM.
`Nc1c(C(=O)N[C@H]2CCN(c3ccccc3)C2)[nH]c(=O)[nH]c1=O` [Example 192, (S)-5-amino-2,6-dioxo-N-(1-phenylpyrrolidin-3-yl)-1,2,3,6-tetrahydropyrimidine-4-carboxamide] showed an IC50 of at most 10 µM.
In the case of `O=C(N[C@@H]1CCCc2ccccc21)c1[nH]c(=O)[nH]c(=O)c1O` [Example 276, (R)-5-hydroxy-2,6-dioxo-N-(1,2,3,4-tetrahydronaphthalen-1-yl)-1,2,3,6-tetrahydropyrimidine-4-carboxamide], the IC50 is reported as at most 10 µM.
`COC(=O)[C@H]1CC[C@@H](NC(=O)c2[nH]c(=O)[nH]c(=O)c2N)CC1` [Example 43, cis-methyl 4-(5-amino-2,6-dioxo-1,2,3,6-tetrahydropyrimidine-4-carboxamido) cyclohexanecarboxylate] gave an IC50 of at most 10 µM.
Molecule `Nc1c(C(=O)N[C@H]2CCCc3c(OCC(F)(F)F)cccc32)[nH]c(=O)[nH]c1=O` [Example 35, (S)-5-amino-2,6-dioxo-N-(5-(2,2,2-trifluoroethoxy)-1,2,3,4-tetrahydronaphthalen-1-yl)-1,2,3,6-tetrahydropyrimidine-4-carboxamide] has an IC50 of at most 10 µM.
`O=C(NC1CCC(c2cnn(Cc3ccccc3)c2)C1)c1[nH]c(=O)[nH]c(=O)c1O` (centres unmarked) [Example 283, N-(3-(1-benzyl-1H-pyrazol-4-yl)cyclopentyl)-5-hydroxy-2,6-dioxo-1,2,3,6-tetrahydropyrimidine-4-carboxamide] was tested, and the IC50 was at most 10 µM.
Molecule `Nc1c(C(=O)N[C@@H]2CCCc3c2cccc3C(F)(F)F)[nH]c(=O)[nH]c1=O` [Example 49, (R)-5-amino-2,6-dioxo-N-(5-(trifluoromethyl)-1,2,3,4-tetrahydronaphthalen-1-yl)-1,2,3,6-tetrahydropyrimidine-4-carboxamide] has an IC50 of at most 10 µM.
`CC(C)COc1ccc(C2CCC(NC(=O)c3[nH]c(=O)[nH]c(=O)c3N)C2)cc1` (centres unmarked) [Example 145, 5-amino-N-(3-(4-isobutoxyphenyl)cyclopentyl)-2,6-dioxo-1,2,3,6-tetrahydropyrimidine-4-carboxamide] was tested, and the IC50 was at most 10 µM.
For `O=C(O)Cn1c(=O)[nH]c(C(=O)N[C@H]2CC[C@@H](c3ccccc3)CC2)c(O)c1=O` [Example 267, 2-(5-Hydroxy-2,6-dioxo-4-((cis-4-phenylcyclohexyl)carbamoyl)-2,3-dihydropyrimidin-1(6H)-yl)acetic acid], the IC50 was at most 10 µM.
`Nc1c(C(=O)N[C@@H]2CCc3c(Oc4ccccc4)cccc32)[nH]c(=O)[nH]c1=O` [Example 88, (R)-5-amino-2,6-dioxo-N-(4-phenoxy-2,3-dihydro-1H-inden-1-yl)-1,2,3,6-tetrahydropyrimidine-4-carboxamide] showed an IC50 of at most 10 µM.
